{"source": "paper PMC11923649", "about": "“Novel C-2 Aromatic Heterocycle-Substituted Triterpenoids Inhibit Hedgehog Signaling in GLI1 Overexpression Cancer Cells” (ACS Omega, 2025)", "key": {"K562-TAX": {"system": "K562-TAX", "assay": "MTS cytotoxicity assay, 72 h, K562-TAX", "type": "cell-based"}, "DU-145 (prostate cancer)": {"system": "DU-145 (prostate cancer)", "assay": "MTS cytotoxicity assay, 72 h, DU-145", "type": "cell-based, human", "details": "Homo sapiens, DU-145, 72 h", "how_it_was_run": "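Absorbance at 490 nm after 1–4 h with MTS/phenazine methosulfate gave viability, from which IC50 was calculated. Compounds were tested over 50–0.0975 μmol/L (2-fold series). DU145 was seeded at 15,000 cells/mL in RPMI 1640 with 10% FBS.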"}, "CEM-DNR": {"system": "CEM-DNR", "assay": "MTS cytotoxicity assay, 72 h, CEM-DNR", "type": "cell-based", "details": "Homo sapiens"}, "[1]": {"system": "K562 (chronic myelogenous leukemia)", "assay": "MTS cytotoxicity assay, 72 h, K562", "type": "cell-based", "details": "Homo sapiens", "how_it_was_run": "(§1)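 Treatment ran 72 h at 37 °C under 5% CO2, starting the day after plating, across 50–0.0975 μmol/L (dilution factor 2). Metabolic conversion of MTS was read at 490 nm to obtain IC50.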"}, "HCT 116": {"system": "HCT 116", "assay": "MTS cytotoxicity assay, 72 h, HCT 116", "type": "cell-based", "details": "Homo sapiens, HCT-116, 72 h", "how_it_was_run": "as §1"}, "[2]": {"system": "A549 (lung adenocarcinoma)", "assay": "MTS cytotoxicity assay, 72 h, A549", "type": "cell-based", "details": "Homo sapiens, A549, 72 h", "how_it_was_run": "as §1"}, "CCRF-CEM": {"system": "CCRF-CEM", "assay": "MTS cytotoxicity assay, 72 h, CCRF-CEM", "type": "cell-based", "details": "for IC50: Homo sapiens, CCRF-CEM, 72 h, MTS; for SI (selectivity index): IC50 of CCRF-CEM line vs average of both fibroblasts (BJ and MRC-5)", "how_it_was_run": "as §1"}, "[3]": {"system": "BJ human skin fibroblasts", "assay": "MTS cytotoxicity assay, 72 h, BJ fibroblasts", "type": "cell-based", "details": "Homo sapiens, Skin fibroblast, normal fibroblasts", "how_it_was_run": "as §1"}, "[4]": {"system": "nine cancer and two normal fibroblast derived cell lines", "assay": "MTS cytotoxicity assay, whole panel of 11 cell lines", "type": "cell-based", "details": "72 h, statement for whole panel", "procedure": "Based on the preliminary results and tests of a larger library of known triterpenoids, a small set of 2-substituted lupane and 18α-oleanane derivatives was designed and synthesized. As the first step, the cytotoxic activity of the synthesized derivatives was assessed using an MTS assay following 72 h of treatment (Table 1). Selected cell lines A549 (lung adenocarcinoma) and DU-145 (prostate cancer) are both dependent on Hh signaling. In addition, K562 (chronic myelogenous leukemia) was included as a cell line sensitive to Hh inhibitors[32] and a type of hematological malignancy with active Hh signaling.[33] MRC-5 lung fibroblasts and BJ human skin fibroblasts cell lines were used to evaluate the toxicity against nontumor cells. Compounds were also tested using the standard panel of other cancer cell lines, as described in our earlier work (Table 1).[27]\nThe human prostate tumor-derived cell line DU145 was obtained from ATCC (American Type Culture Collection) and cultured in RPMI 1640 (Roswell Park Memorial Institute) medium supplemented with 10% (v/v) fetal bovine serum (FBS). Human prostate tumor-derived LNCaP cells were obtained from ATCC and cultured in RPMI 1640 medium supplemented with 10% FBS. […] Finally, the absorbance at 490 nm was measured using an EnVision multifunctional modular reader (PerkinElmer). The IC50 value was determined using Dotmatics software."}, "HCT116 p53–/–": {"system": "HCT116 p53–/–", "assay": "MTS cytotoxicity assay, 72 h, HCT116 p53–/–", "type": "cell-based", "details": "Homo sapiens, HCT-116, 72 h", "how_it_was_run": "as §1"}, "U2OS": {"system": "U2OS", "assay": "MTS cytotoxicity assay, 72 h, U2OS", "type": "cell-based", "details": "Homo sapiens"}, "MRC-5 lung fibroblasts": {"system": "MRC-5 lung fibroblasts", "assay": "MTS cytotoxicity assay, 72 h, MRC-5 fibroblasts", "type": "cell-based, human", "details": "Homo sapiens, MRC5, 72 h, normal fibroblasts", "how_it_was_run": "as §1"}}, "data": [{"molecule": "CC1(C)C(=O)C(c2ccc3cn[nH]c3c2)=C[C@@]2(C)C1CC[C@]1(C)C2CCC2C3[C@H]4OC[C@@]3(CCC4(C)C)CC[C@]21C", "note": "(stereo partly drawn) [Compound 4n, 2-(Indazol-6-yl)-19β,28-epoxyolean-1-en-3-one]", "values": [{"measurement": "IC50", "setting": "K562-TAX; Table 1", "result": 16, "unit": "µM"}, {"measurement": "IC50", "setting": "K562-TAX; full Table S1", "result": 16.8, "unit": "µM"}, {"measurement": "IC50", "setting": "DU-145 (prostate cancer); Table 1", "result": 24, "unit": "µM"}, {"measurement": "IC50", "setting": "DU-145 (prostate cancer); full Table S1", "result": 23.9, "unit": "µM"}, {"measurement": "IC50", "setting": "CEM-DNR; Table 1", "result": 24, "unit": "µM"}, {"measurement": "IC50", "setting": "CEM-DNR; full Table S1", "result": 24.1, "unit": "µM"}, {"measurement": "IC50", "setting": "[1]; Table 1", "result": 23, "unit": "µM"}, {"measurement": "IC50", "setting": "[1]; full Table S1", "result": 22.5, "unit": "µM"}, {"measurement": "IC50", "setting": "HCT 116; Table 1", "result": 31, "unit": "µM"}, {"measurement": "IC50", "setting": "HCT 116; full Table S1", "result": 30.6, "unit": "µM"}, {"measurement": "IC50", "setting": "[2]; Table 1", "result": 30, "unit": "µM"}, {"measurement": "IC50", "setting": "[2]; full Table S1", "result": 29.5, "unit": "µM"}, {"measurement": "IC50", "setting": "CCRF-CEM; Table 1", "result": 18, "unit": "µM"}, {"measurement": "SI (selectivity index)", "setting": "CCRF-CEM; Table 1", "result": 2.1}, {"measurement": "IC50", "setting": "[3]; Table 1", "result": 42, "unit": "µM"}, {"measurement": "IC50", "setting": "[3]; full Table S1", "result": 42.2, "unit": "µM"}, {"measurement": "Cytotoxic activity (IC50) on these 11 cell lines", "setting": "[4]", "result": "weak cytotoxicity"}, {"measurement": "IC50", "setting": "HCT116 p53–/–; Table 1", "result": 31, "unit": "µM"}, {"measurement": "IC50", "setting": "HCT116 p53–/–; full Table S1", "result": 30.6, "unit": "µM"}, {"measurement": "IC50", "setting": "U2OS; Table 1", "result": 25, "unit": "µM"}, {"measurement": "IC50", "setting": "U2OS; full Table S1", "result": 24.5, "unit": "µM"}, {"measurement": "IC50", "setting": "MRC-5 lung fibroblasts; Table 1", "result": 33, "unit": "µM"}, {"measurement": "IC50", "setting": "MRC-5 lung fibroblasts; full Table S1", "result": 33.2, "unit": "µM"}]}, {"molecule": "CC1(C)C(=O)C(c2ccc3[nH]ccc3c2)=C[C@@]2(C)C1CC[C@]1(C)C2CCC2C3[C@H]4OC[C@@]3(CCC4(C)C)CC[C@]21C", "note": "(stereo partly drawn) [Compound 4m, 2-(Indol-5-yl)-19β,28-epoxyolean-1-en-3-one]", "values": [{"measurement": "IC50", "setting": "K562-TAX; Table 1", "result": "> 50", "unit": "µM"}, {"measurement": "IC50", "setting": "DU-145 (prostate cancer); Table 1", "result": 26, "unit": "µM"}, {"measurement": "IC50", "setting": "DU-145 (prostate cancer); full Table S1", "result": 25.8, "unit": "µM"}, {"measurement": "IC50", "setting": "CEM-DNR; Table 1", "result": "> 50", "unit": "µM"}, {"measurement": "IC50", "setting": "[1]; Table 1", "result": "> 50", "unit": "µM"}, {"measurement": "IC50", "setting": "HCT 116; Table 1", "result": "> 50", "unit": "µM"}, {"measurement": "IC50", "setting": "[2]; Table 1", "result": "> 50", "unit": "µM"}, {"measurement": "IC50", "setting": "CCRF-CEM; Table 1", "result": 26, "unit": "µM"}, {"measurement": "IC50", "setting": "CCRF-CEM; full Table S1", "result": 26.1, "unit": "µM"}, {"measurement": "SI (selectivity index)", "setting": "CCRF-CEM; Table 1", "result": ">1.9"}, {"measurement": "IC50", "setting": "[3]; Table 1", "result": "> 50", "unit": "µM"}, {"measurement": "IC50", "setting": "HCT116 p53–/–; Table 1", "result": "> 50", "unit": "µM"}, {"measurement": "IC50", "setting": "U2OS; Table 1", "result": "> 50", "unit": "µM"}, {"measurement": "IC50", "setting": "MRC-5 lung fibroblasts; Table 1", "result": "> 50", "unit": "µM"}]}]}
